Measured values taken from patent US10155021B2, “Antimicrobial 4-oxoquinolizines” (Emergent Product Development Gaithersburg Inc., priority 2011, dated 2018).
Converted amounts (≈) assume the structure as drawn. Read-outs that look alike come from different tables or passages of the source.

What was measured:
[1] = test system: A. baumannii ATCC 19606; assay: Preliminary MBC without and with sub-inhibitory polymyxin B (Example 4); assay type: cell-based, Acinetobacter baumannii; details: preliminary MBC; for MBC +0.06 μg/ml PB: A. baumannii ATCC 19606, +0.06 μg/ml polymyxin B; for MBC: Acinetobacter baumannii, ATCC19606, A. baumannii ATCC 19606, without polymyxin B, read-out: MBC without PB
[2] = test system: A. baumannii A472; assay: MIC determination for Acinetobacter strains (Example 3); assay type: cell-based; details: LEV R, CIP R, MRP I, IMP I, AMK R, TET R
[3] = test system: A. baumannii A489; assay: as above; assay type: cell-based; details: LEV R, CIP R, MRP R, IMP R, AMK R, TET R
[4] = test system: A. baumannii ATCC 19606; assay: MIC without and with sub-inhibitory polymyxin B (Example 4); assay type: cell-based, Acinetobacter baumannii; details: for MIC +0.06 μg/ml PB / MIC without PB/MIC + PB: A. baumannii ATCC 19606; for MIC +0.06 μg/ml PB: +0.06 μg/ml polymyxin B; for MIC without PB/MIC + PB: ratio, PB 0.06 μg/ml; for MIC: Acinetobacter baumannii, ATCC19606, A. baumannii ATCC 19606, without polymyxin B
[5] = test system: A. baumannii ATCC 19606; assay: MIC determination for Acinetobacter strains (Example 3); assay type: cell-based; details: ATCC19606, reference strain
[6] = test system: A. baumannii A473; assay: as above; assay type: cell-based; details: LEV R, CIP R, MRP R, IMP R, AMK R, TET R
[7] = test system: A. baumannii A387; assay: as above; assay type: cell-based; details: LEV I, CIP R, IPM R, AMK R, TET R
[8] = test system: A. baumannii J2; assay: as above; assay type: cell-based; details: LEV R, CIP R
[9] = test system: A. baumannii A387; assay: MIC without and with sub-inhibitory polymyxin B (Example 4); assay type: cell-based, Acinetobacter baumannii; details: for MIC +0.06 μg/ml PB / MIC without PB/MIC + PB: A. baumannii A387; for MIC +0.06 μg/ml PB: +0.06 μg/ml polymyxin B; for MIC without PB/MIC + PB: ratio, PB 0.06 μg/ml; for MIC: Acinetobacter baumannii, A387, A. baumannii A387, without polymyxin B, read-out: MIC without PB
[10] = test system: A. baumannii A390; assay: as above; assay type: cell-based, Acinetobacter baumannii; details: for MIC: Acinetobacter baumannii, A390, A. baumannii A390, without polymyxin B, read-out: MIC without PB
[11] = test system: A. baumannii A390; assay: MIC determination for Acinetobacter strains (Example 3); assay type: cell-based; details: LEV R, CIP R, MRP R, IPM I, AMK R, TET I
[12] = test system: 11 strains of A. baumannii and one strain of Acinetobacter sp.; assay: Preliminary MBC without and with sub-inhibitory polymyxin B, whole panel (Example 4; also strains not listed separately); assay type: cell-based; details: for MBC +0.06 μg/ml PB: A. baumannii A14, +0.06 μg/ml polymyxin B; for MBC +[…] PB: A. baumannii NCTC 13301, +[…] polymyxin B; for MBC: Acinetobacter baumannii, read-out: MBC without PB
[13] = test system: Acinetobacter sp. (H064200250); assay: MIC without and with sub-inhibitory polymyxin B (Example 4); assay type: cell-based; details: for MIC +[…] PB: +[…] polymyxin B; for MIC without PB/MIC + PB: ratio; for MIC: Acinetobacter, without polymyxin B, read-out: MIC without PB
[14] = test system: A. baumannii A387; assay: Preliminary MBC without and with sub-inhibitory polymyxin B (Example 4); assay type: cell-based, Acinetobacter baumannii; details: for MBC +0.06 μg/ml PB: A. baumannii A387, +0.06 μg/ml polymyxin B; for MBC: Acinetobacter baumannii, A387, A. baumannii A387, without polymyxin B, read-out: MBC without PB
[15] = test system: S. pneumoniae 1027; assay: MIC, panel of quinolone-resistant strains (CLSI); assay type: cell-based; details: Streptococcus pneumoniae, LEV R
[16] = test system: E. coli 25922; assay: MIC, standard panel of Gram-positive and Gram-negative bacteria (CLSI); assay type: cell-based, Escherichia coli; details: Escherichia coli, 25922; CAMHB; read-out: MIC E. coli 25922
[17] = test system: S. aureus 25923; assay: as above; assay type: cell-based, Staphylococcus aureus; details: Staphylococcus aureus, 25923; CAMHB; read-out: MIC S. aureus 25923
[18] = test system: S. aureus 25923 HS; assay: as above; assay type: cell-based; details: Staphylococcus aureus, CAMHB, HS, read-out: MIC S. aureus 25923 HS
[19] = test system: B. thailandensis; assay: microbe, parasite or virus in culture; assay type: cell-based, Burkholderia thailandensis; details: Burkholderia thailandensis, read-out: MIC90 B. thailandensis
[20] = test system: A. Baumanii OXA-51; assay: MIC, panel of quinolone-resistant strains (CLSI); assay type: cell-based; details: Acinetobacter baumannii; CIP R, ESBL
[21] = test system: P. aeruginosa 27853; assay: MIC, standard panel of Gram-positive and Gram-negative bacteria (CLSI); assay type: cell-based, Pseudomonas aeruginosa; details: Pseudomonas aeruginosa, 27853; CAMHB; read-out: MIC P. aeruginosa 27853
[22] = Acinetobacter spp. H064200250 (OXA51), 2nd experiment, visual reading
[23] = Acinetobacter spp. H064200250, 1st experiment

SMILES: C[C@@H](O)[C@H]1C(=O)N2C(C(=O)O)=C(SCCN=CN)C[C@H]12 [Imipenem, reference compound]
- MBC +0.06 μg/ml PB ([1]; 2nd experiment): 1 µg/mL
- MBC +0.06 μg/ml PB ([1]; 1st experiment): 2 µg/mL
- MBC ([1]; 2nd experiment): 4 µg/mL (≈ 13.4 µM)
- MBC ([1]; 1st experiment): 2 µg/mL (≈ 6.68 µM)
- MIC [2]: 16 µg/mL (≈ 53.4 µM)
- MIC [3]: 128 µg/mL (≈ 428 µM)
- MIC +0.06 μg/ml PB ([4]; 1st experiment): 1 µg/mL
- MIC +0.06 μg/ml PB ([4]; 2nd experiment, visual reading): 1 µg/mL
- MIC without PB/MIC + PB ([4]; 1st experiment): 2
- MIC without PB/MIC + PB ([4]; 2nd experiment): 1
- MIC ([4]; 1st experiment, read-out: MIC without PB): 2 µg/mL (≈ 6.68 µM)
- MIC ([4]; 2nd experiment, second reading marked *, mark not explained, read-out: MIC without PB, value in parentheses marked *): 4 µg/mL (≈ 13.4 µM)
- MIC ([4]; 2nd experiment, visual reading, read-out: MIC without PB): 1 µg/mL (≈ 3.34 µM)
- MIC [5]: 2 µg/mL (≈ 6.68 µM)
- MIC [6]: 32 µg/mL (≈ 107 µM)
- MIC [7]: 16 µg/mL (≈ 53.4 µM)
- MIC [8]: 4 µg/mL (≈ 13.4 µM)
- MIC +0.06 μg/ml PB ([9]; 1st experiment): 8 µg/mL
- MIC +0.06 μg/ml PB ([9]; 2nd experiment, visual reading): 8 µg/mL
- MIC without PB/MIC + PB ([9]; 1st experiment): 2
- MIC without PB/MIC + PB ([9]; 2nd experiment): 2
- MIC ([9]; 1st experiment): 16 µg/mL (≈ 53.4 µM)
- MIC ([9]; 2nd experiment, visual reading): 16 µg/mL (≈ 53.4 µM)
- MIC +0.06 μg/ml PB ([10]; A. baumannii A390, +0.06 μg/ml polymyxin B, 2nd experiment, visual reading): 4 µg/mL
- MIC without PB/MIC + PB ([10]; A. baumannii A390, ratio, PB 0.06 μg/ml, 2nd experiment): 4
- MIC ([10]; 1st experiment): 16 µg/mL (≈ 53.4 µM)
- MIC ([10]; 2nd experiment, visual reading): 16 µg/mL (≈ 53.4 µM)
- MIC [11]: 16 µg/mL (≈ 53.4 µM)
- MBC +0.06 μg/ml PB ([12]; 1st experiment): 1 µg/mL
- MBC +0.06 μg/ml PB ([12]; 2nd experiment): 0.5 µg/mL
- MBC +[…] PB ([12]; 1st experiment): 16 µg/mL (≈ 53.4 µM)
- MBC +[…] PB ([12]; 2nd experiment): 0.5 µg/mL (≈ 1.67 µM)
- MBC ([12]; A. baumannii A14, without polymyxin B, 1st experiment): 2 µg/mL (≈ 6.68 µM)
- MBC ([12]; A. baumannii A14, without polymyxin B, 2nd experiment): 1 µg/mL (≈ 3.34 µM)
- MBC ([12]; NCTC13301, A. baumannii NCTC 13301, without polymyxin B, 1st experiment): 128 µg/mL (≈ 428 µM)
- MBC ([12]; NCTC13301, A. baumannii NCTC 13301, without polymyxin B, 2nd experiment): 128 µg/mL (≈ 428 µM)
- MIC +[…] PB [13, 22]: 0.5 µg/mL (≈ 1.67 µM)
- MIC without PB/MIC + PB ([13]; Acinetobacter spp. H064200250 (OXA51), 2nd experiment): 16
- MIC +[…] PB [13, 23]: 0.5 µg/mL (≈ 1.67 µM)
- MIC without PB/MIC + PB [13, 23]: 32
- MIC [13, 22]: 8 µg/mL (≈ 26.7 µM)
- MIC [13, 23]: 16 µg/mL (≈ 53.4 µM)
- MBC +0.06 μg/ml PB ([14]; 1st experiment): 8 µg/mL
- MBC +0.06 μg/ml PB ([14]; 2nd experiment): 8 µg/mL
- MBC ([14]; 1st experiment): 16 µg/mL (≈ 53.4 µM)
- MBC ([14]; 2nd experiment): 16 µg/mL (≈ 53.4 µM)

SMILES: Cc1c(-c2cc(Cl)c(N)c(Cl)c2)ccn2c(=O)c(C(=O)O)cc(C3CC3)c12 [Compound 3, 8-(3,5-dichloro-4-amino-phenyl)-1-cyclopropyl-9-methyl-4-oxo-quinolizine-3-carboxylic acid]
- MIC [2]: 32 µg/mL (≈ 79.4 µM)
- MIC [3]: 4 µg/mL (≈ 9.92 µM)
- MIC [15]: 2 µg/mL (≈ 4.96 µM)
- MIC [16]: < 0.03 µg/mL
- MIC [17]: < 8 ng/mL
- MIC [18]: 1 µg/mL (≈ 2.48 µM)
- MIC90 [19]: < 0.048 µg/mL
- MIC [20]: 8 µg/mL (≈ 19.8 µM)
- MIC [21]: 2 µg/mL (≈ 4.96 µM)
- MIC [6]: 4 µg/mL (≈ 9.92 µM)
- MIC [7]: 1 µg/mL (≈ 2.48 µM)
- MIC [8]: 8 µg/mL (≈ 19.8 µM)
- MIC ([9]; 1st experiment): 1 µg/mL (≈ 2.48 µM)
- MIC ([9]; 2nd experiment, visual reading): 1 µg/mL (≈ 2.48 µM)
- MIC [13, 22]: 16 µg/mL (≈ 39.7 µM)
- MIC [13, 23]: 8 µg/mL (≈ 19.8 µM)
- MBC ([14]; 1st experiment): 1 µg/mL (≈ 2.48 µM)
- MBC ([14]; 2nd experiment): 4 µg/mL (≈ 9.92 µM)
